According to patent US5962487A, “Antipicornaviral compounds and methods for their use and preparation” (Agouron Pharmaceuticals, Inc., priority 1997, dated 1999):

How the values were obtained:
[1] = molecular target: T1, Rhinovirus 3C protease (RVP) serotype 16 (Human rhinovirus 16, UniProt Q82122); experiment: Inhibition of Rhinovirus Protease, serotype 16 (FRET assay); assay type: biochemical; settings: enzyme start experiments, read-out: kobs/I
T1 construct: Recombinant Rhinovirus 3C proteases from serotypes 14, 16, 2 or 89 were prepared; made in house
Procedure: Stock solutions (50 mM, in DMSO) of various compounds were prepared; dilutions were in the same solvent. Recombinant Rhinovirus 3C proteases from serotypes 14, 16, 2 or 89 were prepared by the following standard chromatographic procedures: (1) ion exchange using Q Sepharose Fast Flow from Pharmacia; (2) affinity chromatography using Affi-Gel Blue from Biorad; and (3) sizing using Sephadex G-100 from Pharmacia. Assays contained 2% DMSO, 50 mM tris pH 7.6, 1 mM EDTA, a compound at the indicated concentrations, approximately 1 μM substrate, and 50-100 nM protease. For Ki determinations, the compound and the enzyme were preincubated for 10 minutes at 30° C. prior to addition of the substrate (substrate start). The kobs/I values were obtained from reactions initiated by addition of enzyme rather than substrate. RVP activity is measured in the fluorescence resonance energy transfer assay. The substrate was (N-terminal) DABCYL-(Gly-Arg-Ala-Val-Phe-Gln-Gly-Pro-Val-Gly)-EDANS. In the uncleaved peptide, the EDANS fluorescence was quenched by the proximal DABCYL moiety. When the peptide was cleaved, the quenching was relieved, and activity was measured as an increase in fluorescence signal.
In the above table, all data is for RVP serotype-14 unless otherwise noted in parentheses. All strains of human rhinovirus (HRV) were purchased from American Type Culture Collection (ATCC), except for serotype 14, which was produced from the infectious cDNA clone constructed and supplied to us by Dr. Roland Rueckert at the Institute for Molecular Virology, University of Wisconsin, Madison, Wis. The column designated INHIB represents the percent inhibition, with the concentration of the compound in μM indicated in parentheses, unless Ki was assigned as designated by (Ki), at 10 minute preincubation with 50 nM RVP prior to addition of substrate was used. The data in the column designated kobs/I was measured from progress curves in enzyme start experiments.

HRV-14 = experiment: Antirhinoviral HI-HeLa Cell Culture Assay (cell protection, XTT), HRV-14; assay type: cell-based, human rhinovirus
Method in brief: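 Read-out is XTT/PMS formazan at 450/650 nm, measured two days after compound exposure of HI-HeLa cells (8×10^5 cells/mL) infected at m.o.i. 0.13 or mock-infected. EC50: protection to 50% of compound-free mock-infected signal; CC50: 50% loss in mock-infected cells; TI is their ratio.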

in vitro [2] = assay type: cell-based; settings: human, hi-hela cells
Method in brief: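 HI-HeLa cells infected with HRV-14 at m.o.i. 0.13 or mock-infected, incubated with compounds for two days; XTT/PMS formazan read at 450/650 nm. EC50 as concentration restoring formazan to 50% of mock-infected level; CC50 from mock-infected cells; TI = CC50/EC50.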

CVB-3 = experiment: Anticoxsackieviral HI-HeLa Cell Culture Assay, CVB-3; assay type: cell-based, Coxsackie strain B-3
Procedure: (§1) The ability of compounds to protect cells against CVA-21 or CVB-3 infection was measured by the XTT dye reduction method. Briefly, HI-HeLa cells were infected with CVA-21 or CVB-3 at a multiplicity of infection (m.o.i.) of 0.05 (CVA-21) and 0.08 (CVB-3) or mock-infected with medium only. Infected or uninfected cells were resuspended at 4×10^4 cells per mL and incubated with appropriate concentrations of drug. One day later, XTT/PMS was added to test plates, and the amount of formazan produced was quantified spectrophotometrically at 450/650 nm. The EC50 was calculated as the concentration of drug that increased the percentage of formazan production in drug-treated, virus-infected cells to 50% of that produced by drug-free, uninfected cells. The 50% cytotoxic dose (CC50) was calculated as the concentration of drug that decreased the percentage of formazan produced in drug-treated, uninfected cells to 50% of that produced in drug-free, uninfected cells. The therapeutic index (TI) was calculated by dividing the CC50 by the EC50.
(§2) The Coxsackie strains A-21 (CVA-21) and B-3 (CVB-3) were purchased from American Type Culture Collection (ATCC). Virus stocks were propagated and antiviral assays were performed in HI-HeLa cells (ATCC). Cells were grown in Minimal Essential Medium with 10% fetal bovine serum.

CVA-21 = experiment: Anticoxsackieviral HI-HeLa Cell Culture Assay, CVA-21; assay type: cell-based, Coxsackie strain A-21
Procedure: as §1, §2

in vitro [3] = assay type: cell-based; settings: human, hi-hela cells; remark: listed apart in the source
Procedure: as §1, §2

T1 sequence (Q82122 1511-1693): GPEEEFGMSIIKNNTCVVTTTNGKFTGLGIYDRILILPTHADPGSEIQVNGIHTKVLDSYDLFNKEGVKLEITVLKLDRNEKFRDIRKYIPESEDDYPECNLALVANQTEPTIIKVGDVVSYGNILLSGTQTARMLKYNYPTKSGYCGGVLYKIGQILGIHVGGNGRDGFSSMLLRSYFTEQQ

CCOC(=O)/C=C/[C@H](CCC(N)=O)NC(=O)[C@H](Cc1ccccc1)N(C)C(=O)[C@H](CC(C)C)NC(=O)OCc1ccccc1 [Compound 2, Ethyl-3-(CBZ-L-Leu-L-N-Me-Phe-L-Gln)-E-Propenoate]
kinact/KI [1]: 1040 M⁻¹ s⁻¹
TI (HRV-14; CC50/EC50, HRV serotype-14, 2880 min): 56
EC50 (HRV-14; Rhinovirus B, HRV14, 48 h, HRV serotype-14 infected HI-HeLa cells, XTT, two days): 1 µM
CC50 at 48 h (in vitro [2]): 56 µM
EC50 (CVB-3; 24 h, CVB-3 infection of Hi-HeLa cells, XTT, one day): 2 µM
TI (CVB-3; CC50/EC50, CVB-3): 28
EC50 (CVA-21; 24 h, CVA-21 infection of Hi-HeLa cells, XTT, one day): 3.3 µM
TI (CVA-21; CC50/EC50, CVA-21): 17
CC50 at 24 h (in vitro [3]): 56 µM
